Measurements reported in patent US9150588B2, “Substituted pyridazin-4(1H)-ones as phosphodiesterase 10A inhibitors” (TAKEDA PHARMACEUTICAL COMPANY LIMITED, priority 2010, dated 2015).

target: T1, human PDE10A enzyme (Homo sapiens, UniProt Q9Y233); experiment: PDE10A Enzyme Activity Inhibition Test (SPA, [3H]cGMP substrate); format: biochemical; conditions: at 100 nM compound; read-out: PDE10A enzyme activity inhibition rate
T1 construct: Human PDE10A full-length gene was transfected into Sf9 or COS-7 cells; His-tag; made in house; host or cells: Sf9 or COS-7 cells
Protocol: PDE10A Enzyme Activity Inhibition Test
Human PDE10A full-length gene was transfected into Sf9 or COS-7 cells, the cells were disrupted and centrifuged, and human PDE10A enzyme was obtained from the residue. The enzyme extracted from Sf9 cells was partially purified using His-tag affinity column. The enzyme was stored at −70° C. until use. The PDE activity was measured using an SPA (Scintillation Proximity Assay) (GE Healthcare). To measure the inhibitory activity of the compound, 10 μL of serially diluted compound was reacted with 20 μL of PDE enzyme in an assay buffer (50 mM HEPES-NaOH, 8.3 mM MgCl2, 1.7 mM EGTA, 0.1% BSA (pH 7.4)) for 30 min at room temperature. The final concentration of DMSO in the reaction mixture was 1 percent. The compounds were evaluated in duplicate in 96-well half-area plates (Corning). To start the reaction, 10 μL of substrate [^3H] cGMP (25 and 50 nM; GE Healthcare and PerkinElmer, respectively) was added to 40 μL. After 60 min of reaction at room temperature, yttrium SPA beads containing zinc sulphate were added (6 mg/mL, 20 μL) to terminate the PDE reaction. After standing still for 1 hr, the measurement was performed using a scintillation counter (PerkinElmer) and the PDE10A enzyme activity inhibition rate was calculated. The inhibition rate was calculated based on the control containing enzyme and DMSO as 0% and the control without enzyme as 100%.

T1 sequence (Q9Y233 267-1055): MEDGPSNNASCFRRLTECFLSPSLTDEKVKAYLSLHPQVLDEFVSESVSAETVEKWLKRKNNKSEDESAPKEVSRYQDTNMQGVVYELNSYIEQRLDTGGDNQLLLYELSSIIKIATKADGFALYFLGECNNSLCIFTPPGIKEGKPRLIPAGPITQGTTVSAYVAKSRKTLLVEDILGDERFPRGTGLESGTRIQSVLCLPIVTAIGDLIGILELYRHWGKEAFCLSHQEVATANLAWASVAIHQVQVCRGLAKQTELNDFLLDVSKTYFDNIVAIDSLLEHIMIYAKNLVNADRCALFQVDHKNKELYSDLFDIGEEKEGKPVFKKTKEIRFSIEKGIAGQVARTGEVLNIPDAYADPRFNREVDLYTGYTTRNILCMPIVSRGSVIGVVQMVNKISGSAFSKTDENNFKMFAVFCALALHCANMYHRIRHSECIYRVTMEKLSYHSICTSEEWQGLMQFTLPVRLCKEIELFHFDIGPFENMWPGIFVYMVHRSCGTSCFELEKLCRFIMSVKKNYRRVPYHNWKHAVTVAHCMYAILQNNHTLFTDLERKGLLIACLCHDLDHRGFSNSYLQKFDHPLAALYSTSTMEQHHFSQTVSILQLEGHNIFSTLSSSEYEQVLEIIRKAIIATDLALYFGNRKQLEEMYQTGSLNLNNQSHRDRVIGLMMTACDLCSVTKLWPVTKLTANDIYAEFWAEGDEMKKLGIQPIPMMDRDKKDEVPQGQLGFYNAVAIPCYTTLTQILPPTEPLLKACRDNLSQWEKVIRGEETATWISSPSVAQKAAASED

SMILES	inhibition at 0.1 µM
O=c1ccn(C2CCCN(c3ccccc3)C2)nc1-c1ccnn1-c1ccccc1 (centres unmarked) [Example 46, 1-(1-phenylpiperidin-3-yl)-3-(1-phenyl-1H-pyrazol-5-yl)pyridazin-4(1H)-one]	< 50%
O=c1ccn(-c2cccc(C(F)(F)F)c2)cc1-c1ccnn1-c1ccccc1 [Example 18, 3-(1-phenyl-1H-pyrazol-5-yl)-1-[3-(trifluoromethyl)phenyl]pyridin-4(1H)-one]	< 50%
O=c1cnn(-c2cccc(C(F)(F)F)c2)cc1-c1ccnn1-c1ccccc1 [Example 19, 5-(1-phenyl-1H-pyrazol-5-yl)-1-[3-(trifluoromethyl)phenyl]pyridazin-4(1H)-one]	< 50%
O=c1c(-c2ccnn2-c2ccccc2)nn(-c2cccc(C(F)(F)F)c2)c2c1OCC2 [Example 2, 3-(1-phenyl-1H-pyrazol-5-yl)-1-[3-(trifluoromethyl)phenyl]-6,7-dihydrofuro[3,2-c]pyridazin-4(1H)-one]	≥ 50%
COc1cn(Cc2ccccc2C(F)(F)F)nc(-c2ccnn2-c2ccccc2)c1=O [Example 102, 5-methoxy-3-(1-phenyl-1H-pyrazol-5-yl)-1-[2-(trifluoromethyl)benzyl]pyridazin-4(1H)-one]	< 50%
COc1cn(C2CCc3ccccc3C2)nc(-c2ccnn2-c2ccccc2)c1=O (centres unmarked) [Example 58, 5-methoxy-3-(1-phenyl-1H-pyrazol-5-yl)-1-(1,2,3,4-tetrahydronaphthalen-2-yl)pyridazin-4(1H)-one]	≥ 50%
O=c1ccn(C2CCN(Cc3ccccc3)CC2)nc1-c1ccnn1-c1ccccc1 [Example 28, 1-(1-benzylpiperidin-4-yl)-3-(1-phenyl-1H-pyrazol-5-yl)pyridazin-4(1H)-one]	< 50%
O=c1ccc(-c2ccccc2F)cn1-c1ccnn1-c1ccccc1 [Example 20, 5-(2-fluorophenyl)-1-(1-phenyl-1H-pyrazol-5-yl)pyridin-2(1H)-one]	< 50%
COc1cn(C2CCCc3ccccc32)nc(-c2ccnn2-c2ccccc2)c1=O (centres unmarked) [Example 97, 5-methoxy-3-(1-phenyl-1H-pyrazol-5-yl)-1-(1,2,3,4-tetrahydronaphthalen-1-yl)pyridazin-4(1H)-one]	< 50%
COc1cn(-c2cccc(C(F)(F)F)c2)nc(C2=NC(C)(C)C(=O)N2c2ccccc2)c1=O [Example 142, 3-(4,4-dimethyl-5-oxo-1-phenyl-4,5-dihydro-1H-imidazol-2-yl)-5-methoxy-1-[3-(trifluoromethyl)phenyl]pyridazin-4(1H)-one]	< 50%
COc1cn(Cc2cccc(-c3ccccc3)c2)nc(-c2ccnn2-c2ccccc2)c1=O [Example 61, 1-(biphenyl-3-ylmethyl)-5-methoxy-3-(1-phenyl-1H-pyrazol-5-yl)pyridazin-4(1H)-one]	≥ 50%
COc1cn(C2CN(c3ncccc3C(F)(F)F)C2)nc(-c2ccnn2-c2ccccc2)c1=O [Example 98, 5-methoxy-3-(1-phenyl-1H-pyrazol-5-yl)-1-{1-[3-(trifluoromethyl)pyridin-2-yl]azetidin-3-yl}pyridazin-4(1H)-one]	≥ 50%
COc1cn(S(=O)(=O)c2ccccc2)nc(-c2ccnn2-c2ccccc2)c1=O [Example 60, 5-methoxy-3-(1-phenyl-1H-pyrazol-5-yl)-1-(phenylsulfonyl)pyridazin-4(1H)-one]	< 50%
O=c1ccn(C2CCN(c3ccccc3)CC2)nc1-c1ccnn1-c1ccccc1 [Example 31, 1-(1-phenylpiperidin-4-yl)-3-(1-phenyl-1H-pyrazol-5-yl)pyridazin-4(1H)-one]	≥ 50%
COc1cn(C2CCN(c3nccs3)CC2)nc(-c2ccnn2-c2ccccc2)c1=O [Example 53, 5-methoxy-3-(1-phenyl-1H-pyrazol-5-yl)-1-[1-(1,3-thiazol-2-yl)piperidin-4-yl]pyridazin-4(1H)-one]	≥ 50%
COc1cn(CC2CC2)nc(-c2ccnn2-c2ccccc2)c1=O [Example 59, 1-(cyclopropylmethyl)-5-methoxy-3-(1-phenyl-1H-pyrazol-5-yl)pyridazin-4(1H)-one]	< 50%
O=c1c(-c2ccnn2-c2ccccc2)nn(-c2cccc(C(F)(F)F)c2)c2ccoc12 [Example 1, 3-(1-phenyl-1H-pyrazol-5-yl)-1-[3-(trifluoromethyl)phenyl]furo[3,2-c]pyridazin-4(1H)-one]	≥ 50%
O=C(c1ccccc1)N1CCC(n2ccc(=O)c(-c3ccnn3-c3ccccc3)n2)CC1 [Example 49, 1-[1-(phenylcarbonyl)piperidin-4-yl]-3-(1-phenyl-1H-pyrazol-5-yl)pyridazin-4(1H)-one]	< 50%
COc1cn(C2=CCN(Cc3ccccc3)CC2)nc(-c2ccnn2-c2ccccc2)c1=O [Example 25, 1-(1-benzyl-1,2,3,6-tetrahydropyridin-4-yl)-5-methoxy-3-(1-phenyl-1H-pyrazol-5-yl)pyridazin-4(1H)-one]	≥ 50%
COc1cn(C2CCN(c3ncccc3C#N)CC2)nc(-c2ccnn2-c2ccccc2)c1=O [Example 56, 2-{4-[5-methoxy-4-oxo-3-(1-phenyl-1H-pyrazol-5-yl)pyridazin-1(4H)-yl]piperidin-1-yl}pyridine-3-carbonitrile]	≥ 50%
O=c1ccn(C2CCN(c3ccccc3C(F)(F)F)CC2)nc1-c1ccnn1-c1ccccc1 [Example 64, 3-(1-phenyl-1H-pyrazol-5-yl)-1-{1-[2-(trifluoromethyl)phenyl]piperidin-4-yl}pyridazin-4(1H)-one]	< 50%
O=c1ccc(-c2cccc(C(F)(F)F)c2)nn1-c1ccnn1-c1ccccc1 [Example 21, 2-(1-phenyl-1H-pyrazol-5-yl)-6-[3-(trifluoromethyl)phenyl]pyridazin-3(2H)-one]	< 50%

More lines, now with the values ahead:

inhibition at 0.1 µM	SMILES
≥ 50%	O=c1cc2n(nc1-c1ccnn1-c1ccccc1)-c1ccccc1OC2 [Example 11, 2-(1-phenyl-1H-pyrazol-5-yl)pyridazino[6,1-c][1,4]benzoxazin-3(5H)-one]
< 50%	O=c1cc(-c2ccccc2)sc(-c2ccnn2-c2ccccc2)c1 [Example 140, 2-phenyl-6-(1-phenyl-1H-pyrazol-5-yl)-4H-thiopyran-4-one]
< 50%	COc1nc(-c2ccccc2)cn(-c2ccnn2-c2ccccc2)c1=O [Example 141, 3-methoxy-5-phenyl-1-(1-phenyl-1H-pyrazol-5-yl)pyrazin-2(1H)-one]
< 50%	O=c1[nH]cc(-c2ccccc2)nc1-c1ccnn1-c1ccccc1 [Example 13, 5-phenyl-3-(1-phenyl-1H-pyrazol-5-yl)pyrazin-2(1H)-one]
< 50%	O=c1[nH]nc(-c2ccccc2)cc1-c1ccnn1-c1ccccc1 [Example 15, 6-phenyl-4-(1-phenyl-1H-pyrazol-5-yl)pyridazin-3(2H)-one]
< 50%	O=c1cc(-c2ccnn2-c2ccccc2)nc(-c2ccccc2)[nH]1 [Example 17, 2-phenyl-6-(1-phenyl-1H-pyrazol-5-yl)pyrimidin-4(3H)-one]
< 50%	O=c1cc(-c2ccccc2)oc(-c2ccnn2-c2ccccc2)c1O [Example 14, 3-hydroxy-6-phenyl-2-(1-phenyl-1H-pyrazol-5-yl)-4H-pyran-4-one]
< 50%	COc1c(-c2ccnn2-c2ccccc2)oc(-c2ccccc2)cc1=O [Example 12, 3-methoxy-6-phenyl-2-(1-phenyl-1H-pyrazol-5-yl)-4H-pyran-4-one]
≥ 50%	O=c1[nH]cc(-c2ccccc2)cc1-c1ccnn1-c1ccccc1 [Example 16, 5-phenyl-3-(1-phenyl-1H-pyrazol-5-yl)pyridin-2(1H)-one]
≥ 50%	COc1cn(Cc2ccccc2)nc(-c2ccnn2-c2ccccc2)c1=O [Example 23, 1-benzyl-5-methoxy-3-(1-phenyl-1H-pyrazol-5-yl)pyridazin-4(1H)-one]
